Source: US4940790A, “5-(3-alkyl-5-tert.butyl-4-hydroxyphenyl)-2-amino-6H-1,3,4-thiadiazines” (Hoechst Aktiengesellschaft, priority 1987, dated 1990)
Structures can show the parent of a compound that is named as a salt. Where two headings read alike, the source gives them in different places.

Columns and labels:
[1] = test system: adjuvant arthritis; assay: Adjuvant arthritis (method of Pearson), reduction in the increase in paw volume; type: in vivo, male rats of a Wistar-Lewis strain; conditions: Rattus norvegicus, po; for inhibition in vivo at 12.5 mg/kg: * 12.5 mg/kg p.o., rats; for inhibition in vivo at 50 mg/kg: 50 mg/kg p.o., once daily day 1 to day 5, rats
Description: 1. […] The experimental animals used were male rats of a Wistar-Lewis strain having a body weight between 130 and 200 g. […] The animals in a control group received only the vehicle. Each preparation and control group comprised 8 animals. The criterion for action was the percentage reduction in the increase in paw volume compared to that of the untreated control group.

[2] = test system: acetic acid stretching; assay: Analgesic action: acetic acid stretching test; type: in vivo, female mice of a NMRI strain; conditions: Mus musculus, 0.25 h; oral dose of 158 mg/kg, mice; read-out: Animals relieved of pain in %
Experimental: The analgesic action of the compounds of the formula I according to the invention was tested by means of the acetic acid stretching test on mice by the method of R. Koster et al., Fed. Prod. 18 (1959), p. 412.
The experimental animals used were female mice of a NMRI strain having a body weight (BW) between 21 and 28 g. Groups of 12 animals each received 0.1 ml/10 g of BW of a 0.6% strength acetic acid solution injected intraperitoneally. The test substances were administered 30 minutes beforehand. Immediately after the injection of acetic acid, the animals were placed alone and the number of typical stretching movements occurring within 15 minutes were counted, which comprise a brief tensing of the stomach muscles including the flank parts and subsequent stretching of the rear body and at least one read extremity.
The test substances were administered orally in a volume of 10 ml/kg of BW in a 1% strength aqueous carboxymethylcellulose (CMC) suspension.

[3] = Acute gastral ulcerogenity; design: species or system male Sprague-Dawley rats; conditions: rat, in vivo, po
Experimental: 2. Acute gastral ulcerogenity
The investigation took place on 10 male Sprague-Dawley rats whose gastric mucous membrane had been sensitized by hunger stress. The body weight of the animals was between 200 and 300 g. While allowing free access to the drinking water, the feed was withdrawn from the animals 48 hours before administration of the test preparations until sacrifice of the animals. The rats were sacrificed 24 hours after oral substance administration, and the stomachs were removed, cleaned under running water and inspected for mucous membrane lesions. All macroscopically visible lesions were regarded as ulcers. The number of animals having ulcers was determined for each dose, and the UD50 values, i.e. the doses at which lesions were caused in 50% of the animals, were calculated from these figures by the method of Litchfield and Wilcoxon (J. Pharmacol. Exp. Ther. 96 (1949), p. 99).

[4] = in vivo; conditions: mouse, ip, read-out: Acute toxicity LD50
Experimental: The LD50 values were determined by a standard method from the mortality occurring within 7 days in NMRI (Naval Medical Research Institute) mice (6 animals per dose) after a single intraperitoneal (i.p.) administration.

[5] = test system: Adriamycin-induced inflammation; assay: Antioxidative action: inhibition of Adriamycin (doxorubicin) induced inflammation; type: in vivo, male Sprague-Dawley rats; conditions: for Protective effect against Adriamycin-induced tissue destruction (in words): rats, oral; for Increase in paw volume: after 72 hours, control 390
Description: 4. Antioxidative action According to current opinion, aggressive oxygen radicals, which are formed to excess during the chronic inflammation process and, as highly toxic inflammation mediators themselves, perpetually maintain the connective tissue destruction proceeding via irreversible lipid peroxidation of the cell membranes, participate prominently in the progressive course, caused by a number of factors, of rheumatoid arthritis and other inflammatory disorders. As a result, antioxidatively active pharmaceuticals which are capable of deactivating these extremely cytotoxic oxygen radicals should allow specific intervention in the chronic course of the inflammation. A suitable animal model for this type of tissue destruction caused by oxygen radicals is Adriamycin (doxorubicin) induced inflammation in rats. The investigations were carried out by the method of D. M. Siegel et al. (Inflammation 4 (1980), p. 233) on male Sprague-Dawley rats having a body weight of between 200 and 230 g in groups each with 7 animals, which received 0.1 mg of Adriamycin, dissolved in 0.1 ml of 0.9% strength sodium chloride solution, by subcutaneous injection into the left rear paw. The increase in paw volume after 72 hours was determined by plethysmography measurement as a measure of the degree of inflammation. The test preparations were administered orally once daily on the 4 successive days, starting with the day of Adriamycin injection, in a 1% strength aqueous carboxymethylcellulose suspension.

[6] = target: T1, 5-lipoxygenase (Homo sapiens, UniProt P09917); assay: Inhibition of 5-lipoxygenase: LTB4 formation in isolated polymorphonuclear human granulocytes; type: cell-based; conditions: ionophor A 23 187, LTB4 by HPLC, 37° C.
T1 construct: in-vitro experiments on isolated polymorphonuclear human granulocytes; endogenous in cells; host or cells: isolated human polymorphonuclear granulocytes
T1 sequence (P09917 1-674): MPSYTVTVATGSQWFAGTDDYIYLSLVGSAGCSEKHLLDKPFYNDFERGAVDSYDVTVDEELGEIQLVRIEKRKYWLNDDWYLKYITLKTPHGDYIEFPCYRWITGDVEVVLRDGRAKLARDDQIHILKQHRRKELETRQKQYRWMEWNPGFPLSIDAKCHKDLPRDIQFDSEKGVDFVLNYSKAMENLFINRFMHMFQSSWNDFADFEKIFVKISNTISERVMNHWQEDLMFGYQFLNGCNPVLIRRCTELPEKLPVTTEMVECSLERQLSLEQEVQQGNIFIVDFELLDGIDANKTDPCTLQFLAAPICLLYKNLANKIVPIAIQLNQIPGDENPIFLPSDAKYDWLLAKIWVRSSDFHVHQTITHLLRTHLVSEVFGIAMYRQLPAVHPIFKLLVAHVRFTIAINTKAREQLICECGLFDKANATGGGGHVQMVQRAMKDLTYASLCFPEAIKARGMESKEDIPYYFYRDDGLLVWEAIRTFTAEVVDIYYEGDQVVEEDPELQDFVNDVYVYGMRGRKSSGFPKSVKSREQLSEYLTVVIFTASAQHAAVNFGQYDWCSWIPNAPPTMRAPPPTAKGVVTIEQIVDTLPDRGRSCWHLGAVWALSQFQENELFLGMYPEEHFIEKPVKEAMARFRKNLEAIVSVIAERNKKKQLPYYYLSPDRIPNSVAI
Experimental: 5. Inhibition of 5-lipoxygenase
The inhibitory action of the compounds according to the invention of 5-lipoxygenase-catalysed degradation of arachidonic acid was determined, as usual, in in-vitro experiments on isolated polymorphonuclear human granulocytes. To this purpose, the cells were incubated at 37° C. with the particular test preparation and the formation of pro-inflammatoryleukotriene B4 (LTB4) was induced after 5 minutes using the calcium ionophor A 23 187 (Calbiochem GmbH, Frankfurt/Main, FRG, Biochemical and Immunochemical Catalog 1985, p. 284). The amount of LTB4 liberated over a period of 10 minutes was determined quantitatively with the aid of a UV detector after separation by means of high-pressure liquid chromatography (HPLC).

[7] = single i.p., NMRI mice, mortality within 7 days

Row | Structure (SMILES) | inhibition in vivo at 12.5 mg/kg [1] [%] | responders at 158 mg/kg [2] [%] | TD50 at 24 h [3] [mg/kg] | LD50 at 168 h [4] [mg/kg] | inhibition in vivo at 50 mg/kg [1] [%] | further results
1 | CC1SC(N(C)C)=NN=C1c1cc(C(C)(C)C)c(O)c(C(C)(C)C)c1 (stereo not drawn) [Example 22] | 84 | 92 | > 200 | 600 to 1200 |  | 
2 | COc1ccc2cc(C(C)C(=O)O)ccc2c1 (stereo not drawn) [naproxen, 2-(6-methoxy-2-naphthyl)-propionic acid, reference compound] |  |  |  |  | 55 | ED50 ([1]; read-out: ED50 in adjuvant arthritis): 17.5 mg/kg; Protective effect against Adriamycin-induced tissue destruction (in words) [5]: ineffective
3 | CCN(C)C1=NN=C(c2cc(C(C)(C)C)c(O)c(C(C)(C)C)c2)CS1 [Example 8] | 61 | 92 | > 200 | 300 to 600 |  | IC50 [6]: 13 µM
4 | C=CCNC1=NN=C(c2cc(C(C)(C)C)c(O)c(C(C)(C)C)c2)CS1 [Example 14] |  | 67 | > 200 | 600 to 1200 | 75 | Protective action ([5]; 25 mg/kg p.o.): 36%; Increase in paw volume ([5]; 25 mg/kg p.o.): 250 µL; Protective action ([5]; 50 mg/kg p.o., *Significance p <0.05): 59%; Increase in paw volume ([5]; 50 mg/kg p.o.): 160 µL; Protective effect against Adriamycin-induced tissue destruction (in words) [5]: strong, dose-dependent protective effect
5 | CC(C)(C)c1cc(C2=NN=C(N3CCCC3)SC2)cc(C(C)(C)C)c1O [Example 17] |  |  |  |  |  | IC50 [6]: 10 µM
6 | CCN(CC)C1=NN=C(c2cc(C(C)(C)C)c(O)c(C(C)(C)C)c2)CS1 [Example 9] | 55 |  | > 200 | 600 to 1200 |  | 
7 | CC1CCN(C2=NN=C(c3cc(C(C)(C)C)c(O)c(C(C)(C)C)c3)CS2)CC1 [Example 2, 5-(3,5-di-tert.butyl-4-hydroxyphenyl)-2-(4-methylpiperidino)-6H-1,3,4-thiadiazine hydrobromide] |  | 75 | 100 |  | 62 | LD50 at 168 h [4, 7]: 600 to 1200 mg/kg
8 | CNC1=NN=C(c2cc(C(C)(C)C)c(O)c(C(C)(C)C)c2)CS1 [Example 4, 5-(3,5-di-tert.butyl-4-hydroxyphenyl)-2-methylamino-6H-1,3,4-thiadiazine-hydrochloride] |  | 83 | 100 to 200 |  | 81 | LD50 at 168 h [4, 7]: 300 to 600 mg/kg
